Four compounds from patent US20200237700A1, “METHODS OF REDUCING OR PREVENTING OXIDATION OF SMALL DENSE LDL OR MEMBRANE POLYUNSATURATED FATTY ACIDS” (Amarin Pharmaceuticals Ireland Limited, priority 2015, published 2020) can be followed below.

Assay [1] concerns human sdLDL. In words: Copper-induced sdLDL oxidation, TBARS (Example 7). In kind it is biochemical. The conditions noted are these: for effect on sdLDL oxidation as compared to vehicle-treated controls: 10 μM, 1 hour. On the procedure: (§1) An experiment to study the antioxidant effect of EPA in LDL and small dense […] performed. […] Fenofibrate, gemfibrozil, and niacin were purchased from Sigma-Aldrich. […] Vitamin E was also incubated with sample aliquots as a positive control.

Assay [2] is described as follows: Glucose-induced membrane lipid peroxidation (LOOH) in multilamellar vesicles, CHOD-iodide assay (Example 4). In kind it is biochemical. On the procedure:
Vitamin E (α-tocopherol) was also purchased from Sigma-Aldrich and prepared in ethanol at 1.0 mM (ε=3.06×10^4 M^−1 cm^−1 at 294 nm) just prior to experimental use. […] All test compounds were further diluted in ethanol or aqueous buffer as needed. Glucose was prepared in saline buffer (0.5 mM HEPES, 154 mM NaCl, pH 7.3) at 11.0 mM (200 mg/dL). CHOD-iodide color reagent (stock) was prepared, with slight modification, as described by from El-Saadani et al. (J. […] Samples were shell-dried under nitrogen gas and placed under vacuum for 1 h to remove residual solvent. […] Lipid suspensions were then vortexed for 3 min at ambient temperature to form MLVs. All MLV samples were subjected to time-dependent autoxidation by incubating at 37° C. in an uncovered, shaking water bath. This method allows lipid peroxidation to occur gradually without requiring the use of exogenous initiators. Small aliquots (5-100 μL) of each sample were removed, immediately following MLV preparation (0 hour) and after exposing samples to oxidative conditions for 72 or 96 hour, and combined with 1.0 mL of activated CHOD-iodide color reagent. Aliquot volume was reduced with each successive time point to ensure that spectrophotometric readings were within the optimal adsorption range. Test samples were covered and incubated in darkness at room temperature for at least 4 hr. Sample absorbances were then measured against a CHOD blank at 365 nm using a Beckman DU-640 spectrophotometer. The CHOD colorimetric assay is based on the oxidation of iodide (I^−) by lipid hydroperoxide (LOOH) to form triiodide (I3^−), the quantity of which is directly proportional to the amount of LOOH present in the lipid sample. The molar absorptivity (E) of I3^− is 2.46×10^4 M^−1 cm^−1 at 365 nm. […] The concentration of glucose selected was consistent with previous experimental studies of hyperglycemia under controlled laboratory conditions or observed in well-defined animal models of Type II diabetes following a glucose challenge. […] Values in FIG. 1 are mean±S.D. (N=6). EPA inhibited the peroxidative effects of glucose by 88% and 86% at 72 and 96 hours, respectively, which was highly significant (p<0.001) as compared to glucose treatment alone. […] Overall ANOVA-0 hour data: p=0.6655, F=0.4185; 72 hour data: p<0.0001, F=428.72; 96 hour data: p<0.0001, F=322.01.

Assay [3] relates to human LDL (unfractionated). In words: Copper-induced unfractionated LDL oxidation, TBARS 1 hr (Example 7). The note with it: 10 μM. In kind it is biochemical. On the procedure: as §1
Assay [4] can be described thus: Small angle x-ray diffraction of cholesterol-enriched POPC model membranes, cholesterol domain peak intensity (Example 9). In kind it is physicochemical. The conditions noted are these: drug-to-phospholipid mole ratio 1:30. Here is the method: The fatty acid stock solutions were stored at −20° C. until use. […] Samples were shell-dried under nitrogen gas and placed under vacuum for 3 hours to remove residual solvent at room temperature. After desiccation, each sample was resuspended in saline buffer (0.5 mM HEPES, 154 mM NaCl, pH 7.3) to yield a final phospholipid concentration of 2.5 mg/mL. Lipid suspensions were then vortexed for 3 minutes at ambient temperature to form MLVs. Membrane lipid vesicles were oriented for x-ray diffraction analysis as described by others (e.g., Herbette et al., Biophys. […] Briefly, a 100 μL aliquot of each MLV preparation (containing 250 μg MLV) was transferred to a Lucite® sedimentation cell fitted with an aluminum foil substrate designed to collect MLVs into a single membrane pellet upon centrifugation. […] After centrifugal orientation, sample supernatants were aspirated and aluminum foil substrates, each supporting a single membrane pellet, were removed from the sedimentation cells. Sample pellets were dried for 5-10 minutes at ambient conditions, mounted onto curved glass supports, and placed in hermetically-sealed, brass or glass containers (for immediate analysis or temporary storage, respectively). All x-ray diffraction experiments were conducted at 20° C., 74% relative humidity. The latter was established by exposing membrane samples to saturated solutions of L-(+)-tartaric acid (K2C4H4O6.½H2O) for at least 1 hour prior to experimental analysis. Oriented membrane samples were aligned at grazing incidence with respect to a collimated, mono-chromatic CuKα x-ray beam (Kα1 and Kα2 unresolved; λ=1.54 Å) produced by a Rigaku Rotaflex RU-200, high-brilliance microfocus generator (Rigaku-MSC, The Woodlands, Tex.) as previously described (Mason et al., Biophys. J., vol. 55(4), pages 769-778 (1989)). The samples were initially subjected to x-ray diffraction analysis at least 12 hours after formation of the membrane pellets and retested for up to several days. […] Collimation of the x-ray beam was achieved using a single Franks mirror. Diffraction data were collected on a one-dimensional, position-sensitive electron detector (Hecus X-ray Systems, Graz, Austria) at a sample-to-detector distance of 150 mm from the sample site. […] Routines written in Origin 8.6 (OriginLab Corporation, Northampton, Mass.) were used to determine total peak area (associated with all diffraction peaks in a given pattern) against which the second-order cholesterol domain peak was normalized. […] Differences between groups were analyzed using the two-tailed, Student's t-test (for comparisons between only two groups) or ANOVA followed by Dunnett or Student-Newman-Keuls multiple comparisons post-hoc analysis (for comparisons between three or more groups). […]

Assay [5] has as its system sdLDL isolated from human subjects under hyperglycemia. Put plainly: Glucose-induced sdLDL oxidation, TBARS/MDA (Example 10). In kind it is biochemical. The note with it: glucose 200 mg/dL; for glucose-induced sdLDL oxidation: 10.0 μM. Here is the method:
Vitamin E (α-tocopherol) purchased from Sigma-Aldrich was prepared in ethanol at 1.0 mM (c=3.06×10^4 M^−1 cm^−1 at 294 nm) prior to experimental use. Test compounds were further diluted in ethanol or aqueous buffer as needed. Phosphate Buffered Saline (PBS) purchased from Sigma-Aldrich was prepared in double distilled water at 10 mM (138 mM NaCl, 2.7 mM KCl, pH 7.4). […] Lipid oxidation was measured by the colorimetric detection of malondialdehyde (MDA), a marker of oxidative stress. Data were presented as mean±SD for (n) separate samples or experiments. Differences between groups were analyzed using the unpaired, two-tailed Student's t-test (for comparisons between only two groups) or ANOVA followed by Student-Newman-Keuls multiple comparisons post hoc analysis (for comparisons between three or more groups).

Assay [6] can be described thus: Small angle x-ray diffraction of glucose-treated model membranes, cholesterol domain peak intensity (Example 4). In kind it is physicochemical. The conditions noted are these: any experimental time point; 1:30 drug-to-phospholipid; glucose 200 mg/dL. On the procedure: After centrifugal orientation, sample supernatants were aspirated and aluminum foil substrates, each supporting a single membrane pellet, were removed from the sedimentation cells. […] All x-ray diffraction experiments were conducted at 20° C., 74% relative humidity.
Oriented membrane samples were aligned at grazing incidence with respect to a collimated, mono-chromatic CuKα x-ray beam (Kα1 and Kα2 unresolved; λ=1.54 Å) produced by a Rigaku Rotaflex RU-200, high-brilliance microfocus generator (Rigaku-MSC, The Woodlands, Tex.) as previously described (Mason et al., Biophys. J., vol. 55(4), pages 769-778 (1989)).
Routines written in Origin 8.6 (OriginLab Corporation, Northampton, Mass.) were used to determine total peak area (associated with all diffraction peaks in a given pattern) against which the second-order cholesterol domain peak was normalized.

Assay [7] deals with sdLDL from plasma of healthy volunteers. Put plainly: Time-dependent sdLDL oxidation, MDA formation over 4 hours (Example 13). The conditions noted are these: entire experimental time course (4 hours). In kind it is biochemical, human. Here is the method:
sdLDL was isolated from the plasma of healthy volunteers by iodixanol density gradient centrifugation and adjusted to a final apolipoprotein concentration of 2 mg/mL. Sample aliquots (100 μg apolipoprotein) were incubated with EPA, DHA, or EPA+DHA (each at 10 μM) for 30 minutes at 37° C. and then treated with 10 μM CuSO4 to initiate lipid oxidation. sdLDL oxidation was measured spectrophotometrically as a function of malondialdehyde (MDA) formation at various intervals over 4 hours. Vitamin E was also tested as a positive control. Experiments were conducted in triplicate and reported as mean±SD.

Assay [8] deals with unfractionated LDL isolated from human plasma. Put plainly: Copper-induced oxidation of unfractionated LDL, TBARS (Example 6). In kind it is biochemical. The note with it: 1.0 μM to 10.0 μM; data not shown. Here is the method:
All test compounds were further diluted in ethanol or aqueous buffer as needed. Venous blood was collected from healthy volunteers into vacutainer tubes containing sodium EDTA. […] Plasma and lipoprotein fractions were maintained at 4° C. and protected from excessive exposure to light. Prior to oxidation experiments, EDTA was removed from the lipoprotein fraction using PD-10 desalting columns (GE Healthcare, Piscataway N.J.). After equilibration of the column with phosphate buffered saline (PBS), 2.5 mL of the lipoprotein fraction was loaded on the column and the flow-through discarded. The lipoprotein was then eluted with 3 mL of PBS. The LDL fractions were further diluted with PBS to obtain a 100 μg/mL apoB100 concentration. […] Differences between groups were analyzed using the two-tailed, Student's t-test (for comparisons between only two groups) or ANOVA followed by Dunnett or Student-Newman-Keuls multiple comparisons post-hoc analysis (for comparisons between three or more groups).

In assay [9] the test system is human sdLDL. Put plainly: Copper-induced sdLDL oxidation, TBARS after 2 hr (Example 6). In kind it is biochemical. Here is the method:
An experiment to study the antioxidant effect of EPA in small dense […] performed. […] Vitamin E (α-tocopherol) was purchased from Sigma-Aldrich and prepared in ethanol at 1.0 mM (ε=3.06×10^4 M^-1 cm^-1 at 294 nm) just prior to experimental use. All test compounds were further diluted in ethanol or aqueous buffer as needed. Venous blood was collected from healthy volunteers into vacutainer tubes containing sodium EDTA. Plasma was separated by centrifugation at 3000 g for 25 min at 4° C. and adjusted to a density of 1.020 g/mL with KBr. Triglyceride-rich lipoproteins (TGRL) and LDL fractions were then isolated by sequential centrifugation at 70,000 rpm at 4° C. in a Beckman LE-80 ultracentrifuge using a Beckman 50.4Ti rotor (Beckman Coulter, Inc., Fullerton, Calif.). The TGRL fraction (with a relative density of <1.020) was aspirated from the top of the centrifugate and discarded, leaving an LDL-enriched […] relative density of 1.020 to 1.063). […] The sdLDL subfraction was retained for additional experimentation. Plasma and lipoprotein fractions were maintained at 4° C. and protected from excessive exposure to light. Prior to oxidation experiments, EDTA was removed from the lipoprotein fraction using PD-10 desalting columns (GE Healthcare, Piscataway N.J.). After equilibration of the column with phosphate buffered saline (PBS), 2.5 mL of the lipoprotein fraction was loaded on the column and the flow-through discarded. The lipoprotein was then eluted with 3 mL of PBS. The LDL fractions were further diluted with PBS to obtain a 100 μg/mL apoB100 concentration. […] Data are presented as mean±S.D. for (N) separate samples or treatment groups. Differences between groups were analyzed using the two-tailed, Student's t-test (for comparisons between only two groups) or ANOVA followed by Dunnett or Student-Newman-Keuls multiple comparisons post-hoc analysis (for comparisons between three or more groups).

Turning to `CC(C)c1c(C(=O)Nc2ccccc2O)c(-c2ccccc2)c(-c2ccc(F)cc2)n1CC[C@@H](O)C[C@@H](O)CC(=O)O` [ATM, Atorvastatin ortho- (o-) hydroxy (active) metabolite], the “inhibition of sdLDL oxidation vs vehicle” value in the assay with human sdLDL [1] (ATM 0.5 μM, alone or in combination with EPA 1.0 μM, 1 hr) is given as 5±5%; in the assay with human sdLDL [1] (each agent at 1.0 μM, 1 hr) it was 18±5%. Moreover, the “antioxidant effects of separate treatments (LOOH formation)” value in [2] (each at 1.0 μM, glucose 200 mg/dL, 96 hours) is “potent antioxidant effects”.
As to `CC(C)c1c(C(=O)Nc2ccccc2)c(-c2ccccc2)c(-c2ccc(F)cc2)n1CC[C@@H](O)C[C@@H](O)CC(=O)O` [atorvastatin], the “effect on sdLDL oxidation as compared to vehicle-treated controls” value in the assay on human sdLDL [1] is “did not have any significant antioxidant activity”. The “inhibited TBARS formation / sdLDL oxidation vs vehicle” value with human sdLDL [1] (each agent at 10 μM, 1 hr) turned out to be 0.1±7%. Besides, the “effect on unfractionated LDL oxidation as compared to vehicle-treated controls” value in [3] is “did not have any significant antioxidant activity”.
Take `Cc1ccc(C)c(OCCCC(C)(C)C(=O)O)c1` [gemfibrozil]: the “effect on cholesterol domains / domain size” value in assay [4] is “no significant changes in cholesterol domain size”. In the assay with human sdLDL [1], the “effect on sdLDL oxidation as compared to vehicle-treated controls” value is recorded as “no significant effect”. For the same compound, the “glucose-induced sdLDL oxidation” value in [5] is given as “did not inhibit glucose-induced sdLDL oxidation”. Besides, in [3], the “effect on unfractionated LDL oxidation as compared to vehicle-treated controls” value is given as “no significant effect”.
Turning to `Cc1c(C)c2c(c(C)c1O)CC[C@@](C)(CCC[C@H](C)CCC[C@H](C)CCCC(C)C)O2` [vitamin E, α-tocopherol], the “effect on sdLDL oxidation as compared to vehicle-treated controls” value in the assay on human sdLDL [1] was “no significant effect”. Moreover, the “effect on cholesterol domain formation as compared to control” value in assay [6] was “no significant effect”. Moreover, in [5], the “glucose-induced sdLDL oxidation” value is “failed to inhibit sdLDL oxidation” and the “increased sdLDL oxidation as compared to glucose-treated controls” value was determined as 63%. The “antioxidant effect on sdLDL oxidation” value in assay [7] is “no significant antioxidant effect”. Besides, the LDL oxidation result in [8] is reported as “did not inhibit LDL oxidation at any concentration”. Also, in the assay with human sdLDL [9] (10.0 μM, 10 μM CuSO4), the “reduced TBARS levels compared to vehicle-treated controls” value was 26%. Further, in the assay with human sdLDL [9] (concentrations below the highest (10.0 μM)), the sdLDL oxidation result was “did not inhibit sdLDL oxidation”. In addition, the “effect on LOOH formation / lipid peroxidation” value in [2] (72- and 96-hour time points, 1:30 drug-to-phospholipid mole ratio, glucose) is “no significant effect”. In addition, the “effect on unfractionated LDL oxidation as compared to vehicle-treated controls” value in [3] is recorded as “no significant effect”.
